Measured values as given in patent publication US10358442B2, “2-homopiperazine-1-yl-4H-1,3-benzothiazine-4-one derivatives and process for the preparation of 2-(homo)piperazine 1,3-benzothiazine-4-one hydrochlorides” (Ecole Polytechnique Federale De Lausanne (EPFL), priority 2015, dated 2019).

Test system: M. tuberculosis NTB1
Assay type: cell-based

Question: How did the “NTB1 MIC99” value turn out when `CCCCCN1CCCN(c2nc(=O)c3cc(C(F)(F)F)cc([N+](=O)[O-])c3s2)CC1.Cl` [Compound 2, 8-Nitro-2-(4-pentyl-1,4-diazepan-1-yl)-6-(trifluoromethyl)-4H-1,3-benzothiazin-4-one Hydrochloride] was run?
Answer: >10 µg/mL

Question: `CCCCCCN1CCCN(c2nc(=O)c3cc(C(F)(F)F)cc([N+](=O)[O-])c3s2)CC1.Cl` [Compound 3, 2-(4-Hexyl-1,4-diazepan-1-yl)-8-nitro-6-(trifluoromethyl)-4H-1,3-benzothiazin-4-one Hydrochloride] was tested. Which “NTB1 MIC99” value did it give?
Answer: >10 µg/mL

Question: `Cl.O=c1nc(N2CCCN(CCC3CCCCC3)CC2)sc2c([N+](=O)[O-])cc(C(F)(F)F)cc12` [Compound 4, 2-[4-(2-Cyclohexylethyl)-1,4-diazepan-1-yl]-8-nitro-6-(trifluoromethyl)-4H-1,3-benzothiazin-4-one Hydrochloride] was tested. Which “NTB1 MIC99” value did it give?
Answer: >10 µg/mL

Question: How did the “NTB1 MIC99” value turn out when `CCCCCCCN1CCCN(c2nc(=O)c3cc(C(F)(F)F)cc([N+](=O)[O-])c3s2)CC1.Cl` [Compound 5, 2-(4-Heptyl-1,4-diazepan-1-yl)-8-nitro-6-(trifluoromethyl)-4H-1,3-benzothiazin-4-one Hydrochloride] was run?
Answer: 13.8 µg/mL

Question: `Cl.O=c1nc(N2CCCN(C3CCCCC3)CC2)sc2c([N+](=O)[O-])cc(C(F)(F)F)cc12` [Compound 6, 2-(4-Cyclohexyl-1,4-diazepan-1-yl)-8-nitro-6-(trifluoromethyl)-4H-1,3-benzothiazin-4-one Hydrochloride] was tested. Which “NTB1 MIC99” value did it give?
Answer: 50.5 µg/mL

Question: With `Cl.O=c1nc(N2CCCN(CCc3ccccc3)CC2)sc2c([N+](=O)[O-])cc(C(F)(F)F)cc12` [Compound 7, 8-Nitro-2-[4-(2-phenylethyl)-1,4-diazepan-1-yl]-6-(trifluoromethyl)-4H-1,3-benzothiazin-4-one Hydrochloride] as the compound, how does the “NTB1 MIC99” value read?
Answer: 27.1 µg/mL

Question: `O=c1nc(N2CCN(CC3CCCCC3)CC2)sc2c([N+](=O)[O-])cc(C(F)(F)F)cc12` [PBTZ169, 2-[4-(cyclohexylmethyl)piperazin-1-yl]-8-nitro-6-(trifluoromethyl)-4H-1,3-benzothiazin-4-one, reference compound] was tested. Which “NTB1 MIC99” value did it give?
Answer: >100 µg/mL
